Values quoted from earlier work as cited in PMC3538728 (PLoS ONE, 2013).
Read-outs that look alike come from different tables or passages of the source.

How the values were obtained:
[1] = cited from earlier work; for outcome in phase III clinical trials: relative to placebo
γ-secretase = molecular target: γ-secretase; parameters: method as in PMID 19694467, PMID 21141968, PMID 19402777, PMID 22323718, PMID 22798753; details: cited from earlier work
[2] = parameters: method as in PMID 19527190; details: early in preclinical studies; cited from earlier work

CC(C)[C@H](O)C(=O)N[C@@H](C)C(=O)N[C@@H]1C(=O)N(C)CCc2ccccc21 [semagacestat]
outcome in phase III clinical trials [1]: irreversibly advance cognitive decline
outcome in phase III clinical trials ([1]; listed as Semagacestat): toxic side-effects and irreversible cognitive decline
tolerance ([1]; preclinical studies and short phase I and phase II clinical trials): good tolerance
IC50 (γ-secretase): ~20 nM

C[C@H](NC(=O)[C@@H](O)c1cc(F)cc(F)c1)C(=O)N[C@@H]1C(=O)N(C)c2ccccc2-c2ccccc21 [LY-411,575, N2-[(2S)-2-(3,5-difluorophenyl)-2-hydroxyethanoyl]-N1-[(7S)-5-methyl-6-oxo-6,7-di hydro-5H-dibenzo[b,d]azepin-7-yl]-L-alaninamide]
toxicity in preclinical studies [2]: toxic side-effects

NC(=O)[C@@H](CCC(F)(F)F)N(Cc1ccc(-c2ncon2)cc1F)S(=O)(=O)c1ccc(Cl)cc1 [avagacestat]
outcome in phase II clinical studies ([1]; phase II): Dose dependent cognitive decline
